These results are taken from ChEMBL document CHEMBL4024755, “Pharmacophore Hybridization To Discover Novel Topoisomerase II Poisons with Promising Antiproliferative Activity” (J Med Chem, 2018).

Molecules are shown by their SMILES. The source made the active and inactive calls. The calls are words filed in the database; no cut-off is given here.

For test [1], the target named is T1, DNA topoisomerase 2-alpha (Homo sapiens, UniProt P11388). The test is described as follows: Poison activity at human Topo2alpha expressed in baculovirus-infected insect cells using pBR322 as substrate assessed as topo2/DNA cleavage complex generation after 6 minutes by ethidium bromide staining based agarose gel electrophoresis.
T1 sequence (P11388 whole entry): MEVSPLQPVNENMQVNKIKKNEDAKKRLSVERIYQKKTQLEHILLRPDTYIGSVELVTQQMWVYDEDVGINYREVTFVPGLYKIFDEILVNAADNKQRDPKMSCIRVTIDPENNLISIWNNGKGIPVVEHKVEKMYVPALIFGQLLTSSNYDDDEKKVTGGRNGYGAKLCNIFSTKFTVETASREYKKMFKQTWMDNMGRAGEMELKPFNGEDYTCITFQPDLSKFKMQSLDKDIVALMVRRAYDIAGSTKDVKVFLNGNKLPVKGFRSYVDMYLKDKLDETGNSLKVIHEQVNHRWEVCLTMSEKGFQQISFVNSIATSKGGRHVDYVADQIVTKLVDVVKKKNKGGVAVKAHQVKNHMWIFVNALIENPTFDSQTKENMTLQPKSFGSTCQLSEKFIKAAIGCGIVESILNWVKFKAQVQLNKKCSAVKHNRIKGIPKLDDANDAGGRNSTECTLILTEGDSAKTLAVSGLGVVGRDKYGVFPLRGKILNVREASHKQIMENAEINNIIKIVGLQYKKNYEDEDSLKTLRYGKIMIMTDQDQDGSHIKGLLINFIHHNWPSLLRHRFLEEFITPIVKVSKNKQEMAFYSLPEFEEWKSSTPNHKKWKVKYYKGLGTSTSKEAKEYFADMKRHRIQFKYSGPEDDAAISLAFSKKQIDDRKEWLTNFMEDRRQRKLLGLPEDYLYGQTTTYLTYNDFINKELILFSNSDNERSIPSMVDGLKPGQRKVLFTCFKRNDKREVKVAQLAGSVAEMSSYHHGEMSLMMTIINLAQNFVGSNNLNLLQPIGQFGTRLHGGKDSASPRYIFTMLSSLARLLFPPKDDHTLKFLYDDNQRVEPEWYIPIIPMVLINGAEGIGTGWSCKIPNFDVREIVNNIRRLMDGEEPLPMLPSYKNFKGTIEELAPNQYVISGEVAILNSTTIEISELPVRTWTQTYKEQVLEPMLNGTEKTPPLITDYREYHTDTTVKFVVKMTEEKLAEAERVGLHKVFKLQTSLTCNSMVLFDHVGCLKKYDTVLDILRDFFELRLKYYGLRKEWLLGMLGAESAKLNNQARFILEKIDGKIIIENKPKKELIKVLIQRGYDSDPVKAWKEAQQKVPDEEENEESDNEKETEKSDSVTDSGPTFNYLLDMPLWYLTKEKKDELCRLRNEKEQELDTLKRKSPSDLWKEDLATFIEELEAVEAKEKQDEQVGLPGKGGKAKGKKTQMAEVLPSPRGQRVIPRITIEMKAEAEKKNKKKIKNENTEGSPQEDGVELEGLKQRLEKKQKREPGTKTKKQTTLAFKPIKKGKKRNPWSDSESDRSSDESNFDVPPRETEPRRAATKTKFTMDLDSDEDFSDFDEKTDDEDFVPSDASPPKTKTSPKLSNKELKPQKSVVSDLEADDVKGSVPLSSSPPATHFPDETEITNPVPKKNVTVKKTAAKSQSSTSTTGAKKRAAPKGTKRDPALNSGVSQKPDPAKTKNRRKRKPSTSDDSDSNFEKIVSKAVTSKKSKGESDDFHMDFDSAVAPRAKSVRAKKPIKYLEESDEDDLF
For test [2], the target named is T1, DNA topoisomerase 2-alpha. The test is described as follows: Inhibition of human topoisomerase 2alpha expressed in baculovirus-infected insect cells assessed as reduction in pBR322 supercoiled DNA relaxation after 60 mins by ethidium bromide staining based agarose gel electrophoresis.
The species entered for test [3] is Bos taurus. The test is described as follows: Binding affinity to calf thymus DNA at 50 uM by UV-spectrophotometric analysis.
The species named for test [4] is Bos taurus. The test is described as follows: Binding affinity to calf thymus DNA in absence of topo2 enzyme by circular dichroism titration analysis. On the technique in general: Circular dichroism is widely used to follow secondary structure.
Test [5] relates to HeLa. The test is described as follows: Antiproliferative activity against human HeLa cells after 72 hrs by MTT assay. It is filed as functional, cell-based. (Formazan colour is commonly taken as a measure of viable cells.)
A further test deals with MCF7. In words: Antiproliferative activity against human MCF7 cells after 72 hrs by MTT assay. The conditions noted are these: MCF7, 72 h. It is filed as functional, cell-based.
For the next test, the system named is A549. The test is described as follows: Antiproliferative activity against human A549 cells after 72 hrs by MTT assay. In kind it is functional, cell-based. The conditions noted are these: A549, 72 h.
The subject of the next test is DU-145. The test is described as follows: Antiproliferative activity against human DU145 cells after 72 hrs by MTT assay. In kind it is functional, cell-based. The conditions noted are these: DU-145, 72 h.
Test [6] addresses T1, DNA topoisomerase 2-alpha. In words: Poison activity at human Topo2alpha expressed in baculovirus-infected insect cells using pBR322 as substrate assessed as concentration required to observe the same amount of topo2/DNA cleavage complex generated by etoposide at 20 uM after 6 minutes by ethidium bromide staining based agarose gel electrophoresis.
Test [7] deals with HeLa. In words: Inhibition of human of DNA topoisomerase 2 in human HeLa cells assessed as induction of H2AX phosphorylation at 10 uM after 90 mins by NuPAGE based electrophoresis. In kind it is cell-based.

As a reminder, the IC50 is the concentration at which inhibition is half-maximal. Consider `O=C(Nc1cccc(O)c1)c1c(O)n(-c2ccccc2)c(=S)n(-c2ccccc2)c1=O`, for which the result (in test [1]; in the test filed under Bos taurus [3]; in the test listed under Bos taurus [4]) was inactive. Besides, the IC50 in test [2] turned out to be 200 µM; in the test with HeLa [5] it was 39.1 µM; in the test with MCF7, 94.2 µM; in the test on A549, 59.4 µM; with DU-145, 49.6 µM.
Turning to `COc1cc(NC(=O)c2c(O)n(-c3ccccc3)c(=S)n(-c3ccccc3)c2=O)cc(OC)c1O`, the IC50 came to 120 µM in [2]; 18.1 µM with HeLa [5]; 53.5 µM in the test on MCF7; 17.5 µM in the test on A549; 26.7 µM in the test with DU-145. Also, in test [6], the Activity was 200 µM. Besides, the result in the test filed under Bos taurus [3] and in the test listed under Bos taurus [4] was inactive.
Consider `COc1cccc(NC(=O)c2c(O)n(-c3ccccc3)c(=S)n(-c3ccccc3)c2=O)c1`, for which the IC50 in [2] was 30 µM; in the test on HeLa [5], 8.5 µM; in the test with MCF7, 14 µM; with A549, 6.9 µM; in the test on DU-145, 12.5 µM. For the same compound, in [6], the Activity came out at 100 µM. For the same compound, the outcome in the test listed under Bos taurus [3] and in the test filed under Bos taurus [4] was inactive.
As for `COc1cc([C@@H]2c3cc4c(cc3[C@@H](O[C@@H]3O[C@@H]5CO[C@@H](C)O[C@H]5[C@H](O)[C@H]3O)[C@H]3COC(=O)[C@H]23)OCO4)cc(OC)c1O` [ETOPOSIDE], the result in the test listed under Bos taurus [3] was inactive. For the same compound, the concentration for half-maximal inhibition (IC50) in the test with HeLa [5] was 2.4 µM; with MCF7, 10.5 µM; in the test on A549 it was 1.3 µM; in the test with DU-145, 1 µM.
Regarding `O=C1NC(=S)NC(=O)C1C(=O)Nc1ccccc1` [MERBARONE], the result (in test [1]; in the test filed under Bos taurus [3]) was inactive. Further, the concentration for half-maximal inhibition (IC50) in test [2] was determined as 120 µM; with HeLa [5], 62.3 µM; in the test on MCF7, 83.9 µM; with A549, 40 µM; in the test with DU-145 it was 18.9 µM.
As to `O=C(Nc1ccccc1)c1c(O)n(-c2ccccc2)c(=S)n(-c2ccccc2)c1=O`, the IC50 in test [2] came out at 5 µM; in the test on HeLa [5], 10.8 µM; in the test on MCF7, 13.6 µM; with A549, 9.2 µM; with DU-145, 16.8 µM. Further, the Activity in test [6] was 200 µM. Moreover, the outcome in the test filed under Bos taurus [3] and in the test filed under Bos taurus [4] was inactive. Besides, the inhibition entry in the test with HeLa [7] is “Active”.
In the case of `O=C(Nc1ccc(O)cc1)c1c(O)n(-c2ccccc2)c(=S)n(-c2ccccc2)c1=O`, the concentration for half-maximal inhibition (IC50) in test [2] was found to be 150 µM; in the test with HeLa [5], 42.9 µM; with MCF7 it was 66.1 µM; in the test on A549 it was 37.1 µM; in the test with DU-145 it was 42.5 µM. The Activity in test [6] amounted to 200 µM. Also, the outcome in the test listed under Bos taurus [3] and in the test listed under Bos taurus [4] was inactive.
